Experimental data published in patent publication US12667567B2, “Method of preventing blast-induced loss of cochlear and vestibular hair cells and auditory spiral ganglion neurons” (Therapeutic Vision, Inc., priority 2024, dated 2026).
Several values for one entry are separate records, joined by “and”; a condition that tells them apart may be missing. Equal values may be shown once. Entries after “also recorded” stand apart in the source; their conditions may differ.

Columns and labels:
outer hair cells (OHC) = test: Blast-induced outer hair cell loss, cochleogram; assay type: in vivo, rat
Experimental: (§1) Blast wave exposure. All rats were exposed to 6 blasts presented once every 5 minutes using equipment and procedures similar to those previously described. (See Manohar, S., et al., Blast-induced hearing loss suppresses hippocampal neurogenesis and disrupts long term spatial memory. Hear Res, 2020. 395: p. 108022; Stachowiak, M. K., et al., Neurogenesis and Oligodendrogenesis in a Mouse Model of Blast-Induced Traumatic Brain Injury. Neurology and Neurobiology, 2020: p. 1-14; and Newman, A. J., et al., Low-cost blast wave generator for studies of hearing loss and brain injury: blast wave effects in closed spaces. J Neurosci Methods, 2015. 242: p. 82-92.) Each rat was anesthetized with an intraperitoneal injection of ketamine (50 mg/kg) and xylazine (6 mg/kg) and stable anesthesia was maintained with supplementary half-doses of anesthetics as needed to maintain a stable anesthetic state. Each anesthetized rat was placed in a wire-mesh cage 5 cm with the snout of the rat facing the front of the blast tube opening. The average blast peak pressure level was 186 dB peak SPL (±0.8 dB, SEM, ~39.9 kPa). The intensity was selected based on our prior study in which we found no evidence of tympanic membrane or ossicular damage in rats exposed at 188 dB pSPL (Newman, A. J. et al.), consistent with an earlier report. (Roberto, M., R. P. Hamernik, and G. A. Turrentine, Damage of the auditory system associated with acute blast trauma. Ann Otol Rhinol Laryngol Suppl, 1989. 140: p. 23-34)
(§2) Experimental groups. The rats were divided into four groups (n=6/group): (1) Blast alone (B), (2) Blast plus earplugs (BEP), (3) Blast plus HK-2 (BHK-2) and (4) Blast plus earplugs plus HK-2 (BEPHK-2). All rats had free access to water and standard lab chow except for the BHK-2 and BEPHK-2 groups that also received HK-2 as noted below.
(§3) HK-2 synthesis and administration. HK-2 was synthesized and evaluated for purity (>99%) as described previously. (Kawada, H. and P. F. Kador, Orally Bioavailable Metal Chelators and Radical Scavengers: Multifunctional Antioxidants for the Coadjutant Treatment of Neurodegenerative Diseases. J Med Chem, 2015. 58(22): p. 8796-805; U.S. Pat. No. 8,877,766 B2) Rats in the BHK-2 group and BEPHK-2 group were fed the same standard laboratory rat chow as the other two groups, however, the chow had been treated with HK-2 as described previously. (Chen, G. D., et al.; Manohar, S., et al., Combined antioxidants and anti-inflammatory therapies fail to attenuate the early and late phases of cyclodextrin-induced cochlear damage and hearing loss. Hear Res, 2022. 414: p. 108409.) HK-2 treated food was administered to rats starting 7-days prior to the blast wave exposure and continuing for 30-days following exposure. Based on the rat's daily food consumption, measured every 2 days together with body weight, the average oral consumption of HK-2 was ~50 mg/kg/day. (Id.)
(§4) Tissue preparation. Approximately 60-days after the blast wave exposure, the rats from all four groups were deeply anesthetized with ketamine (50 mg/kg, i.p.) and xylazine (6 mg/kg, i.p.) and decapitated. The temporal bones were quickly removed. Under a dissection microscope, openings were made in the cochlear apex, round window, and the oval window. […]

inner hair cells (IHC) = test: Blast-induced inner hair cell loss, cochleogram; assay type: in vivo, rat
Experimental: as §1, §2, §3, §4

[1] = system: auditory nerve fibers (ANF); test: Blast-induced loss of auditory nerve fibers in habenula perforata; assay type: in vivo, rat; conditions: for mean number of ANF/habenula perforata: middle of basal turn, ~25 kHz
Experimental: as §1, §2
(§5) HK-2 synthesis and administration. HK-2 was synthesized and evaluated for purity (>99%) as described previously. (Kawada, H. and P. F. Kador, Orally Bioavailable Metal Chelators and Radical Scavengers: Multifunctional Antioxidants for the Coadjutant Treatment of Neurodegenerative Diseases. J Med Chem, 2015. 58(22): p. 8796-805; U.S. Pat. No. 8,877,766 B2) Rats in the BHK-2 group and BEPHK-2 group were fed the same standard laboratory rat chow as the other two groups, however, the chow had been treated with HK-2 as described previously. […] Based on the rat's daily food consumption, measured every 2 days together with body weight, the average oral consumption of HK-2 was ~50 mg/kg/day. […]

[2] = system: spiral ganglion neurons (SGN); test: Blast-induced loss of spiral ganglion neurons in Rosenthal's canal; assay type: in vivo, rat; conditions: for mean number of SGN per section: middle of basal turn, ~25 kHz
Experimental: as §1, §2, §5

[3] = system: vestibular hair cells in the saccule; test: Vestibular hair cell density in macula of the saccule after blast; assay type: in vivo, rat
Experimental: as §1, §2, §3, §4

[4] = system: vestibular hair cells in the utricle; test: Vestibular hair cell density in macula of the utricle after blast; assay type: in vivo, rat
Experimental: as §1, §2, §5

[5] = system: vestibular hair cells in the crista of the ampulla; test: Vestibular hair cell density in crista ampullae of semicircular canals after blast; assay type: in vivo, rat
Experimental: as §1, with “The intensity was selected based on our prior study in which we found no evidence of tympanic membrane or ossicular damage in rats exposed at 188 dB pSPL (Newman, A. J. et al.), consistent with an earlier report. (Roberto, M., R. P. Hamernik, and G. A. Turrentine, Damage of the auditory system associated with acute blast trauma. Ann Otol Rhinol Laryngol Suppl, 1989. 140: p. 23-34)” left out
HK-2 synthesis and administration. HK-2 was synthesized and evaluated for purity (>99%) as described previously. […] Based on the rat's daily food consumption, measured every 2 days together with body weight, the average oral consumption of HK-2 was ~50 mg/kg/day. […]

[6] = system: noise-induced hearing loss and outer hair cell loss; conditions: 95 dB SPL octave band noise, 8 h/d for 21 days; HK-2 before, during and after the exposure; cited from earlier work
[7] = BHK-2 group, 6 blasts 186 dB peak SPL, HK-2 oral 50 mg/kg/d from 7 d before to 30 d after blast, 60 d post-exposure, 50 mg/kg/day
[8] = BEPHK-2 group (earplugs plus HK-2)
[9] = HK-2 oral 50 mg/kg/d, 60 d post-exposure, 50 mg/kg/day
[10] = BHK-2 group, no blast-induced loss in this region

O=C1CCC(=O)N1c1ncc(O)cn1 [HK-2, 1-(5-hydroxypyrimidin-2-yl) pyrrolidine-2,5-dione]
OHC loss less than in BEP group (outer hair cells (OHC); BEPHK-2 group (earplugs plus HK-2), extreme base): about 10% | reduction of total OHC loss compared to B group (outer hair cells (OHC); [7]): 67% and ~ 67% | mean OHC loss (outer hair cells (OHC); BHK-2 group, 10% location (distance from apex)): 10% | mean OHC loss (outer hair cells (OHC); BHK-2 group, 70% location (distance from apex)): ~ 39% | mean OHC loss (outer hair cells (OHC); BHK-2 group, high-frequency base of the cochlea): ~ 76% | IHC loss (inner hair cells (IHC); BEPHK-2 group (earplugs plus HK-2; range stated jointly with BEP group), base of the cochlea): 14-19% | reduction of total IHC loss compared to B group (inner hair cells (IHC); [7]): 57% and ~ 57.3% and ~ 57% | mean IHC loss (inner hair cells (IHC); BHK-2 group, middle of the cochlea): ~ 20 | mean IHC loss (inner hair cells (IHC); BHK-2 group, near the apex): 0% | mean IHC loss (inner hair cells (IHC); BHK-2 group, near the base of the cochlea): ~ 67% | mean number of ANF/habenula perforata [1, 8]: 82.8 ANF/habenula perforata | mean number of ANF/habenula perforata ([1]; BHK-2 group, B group ~9.2): 84.2 ANF/habenula perforata | protection against blast-induced ANF loss (in words) [1, 9]: completely prevented; also recorded: complete protection | increase of ANF versus blast alone ([1]; HK-2 treatment, 25 kHz region): ~ 8 fold | mean number of SGN per section [2, 8]: 41.8 SGN per section | mean number of SGN per section ([2]; BHK-2 group, B group ~9): 42.3 SGN per section | protection against blast-induced SGN loss (in words) [2, 9]: completely prevented; also recorded: significant protection | increase of SGN versus blast alone ([2]; HK-2 treatment, 25 kHz region): ~ 3.7 fold | mean hair cell density, marginal region of the saccule [3, 8]: 123.0 /0.0108 mm^2 | mean vestibular hair cell density, striola of the saccule [3, 8]: 112.0 hair cell/0.0108 mm^2 | mean vestibular hair cell density, striola of the saccule ([3]; BHK-2 group, B group 71.83): 102.7 hair cell/0.0108 mm^2 | mean hair cell density, marginal region of the saccule [3, 10]: 122.2 /0.0108 mm^2 | protection against blast-induced saccule (striola) hair cell loss (in words) [3, 9]: completely prevented; also recorded: restored hair cell densities to normal levels; also recorded: significant protection | mean hair cell density, marginal region of the macula of the utricle [4, 8]: 122.8 /0.0108 mm^2 | mean hair cell density, striola region of the macula of the utricle [4, 8]: 111.3 /0.0108 mm^2 | mean hair cell density, marginal region of the macula of the utricle [4, 10]: 122.7 /0.0108 mm^2 | mean hair cell density, striola region of the macula of the utricle [4, 10]: 111.0 /0.0108 mm^2 | mean hair cell density, crista of the ampulla of the three semicircular canals [5, 8]: 122.8 /0.0108 mm^2 | mean hair cell density, crista of the ampulla of the three semicircular canals [5, 10]: 121.8 /0.0108 mm^2 | hearing loss and hair cell loss after noise exposure (in words) [6]: significantly reduced in a dose-dependent manner
